Reference: patent US20140155406A1, “4-IMIDAZOPYRIDAZIN-1-YL-BENZAMIDES AND 4-IMIDAZOTRIAZIN-1-YL-BENZAMIDES BTK INHIBITORS” (priority 2011, published 2014)
pEC50: −log10 of the molar value.

Legend:
Assay type in all cases: biochemical
[1] = target: T1, Lyn enzyme (Homo sapiens, UniProt P07948); assay: Lyn enzyme activity, IMAP fluorescence polarization assay; conditions: 60 min pre-incubation, 2 μM ATP (Km)
T1 construct: purchased Millipore 14-510
Description: Lyn enzyme activity is measured using the IMAP (immobilized metal ion affinity-based fluorescence polarization) assay as outlined below.
Lyn enzyme (Millipore catalog#14-510), is diluted to 250 mU/mL in KR buffer (10 mM Tris-HCl, 10 mM MgCl2, 0.01% Tween-20, 0.05% NaN3, 1 mM DTT, 2 mM MnCl2, pH 7.2). Serial dilution log 10 from 2 mM to 63.2 nM of test compounds are made in 100% DMSO. The dilutions in DMSO are then diluted 50-fold in KR-buffer of which 5 μl is used in the assay, leading to a final compound concentration range in the assay from 10 μM to 0.316 nM. 5 μL/well of test compound in KR buffer (final DMSO concentration in the assay is 1%) is mixed with 5 μl/well of 250 mU/mL Lyn enzyme (final concentration in the assay is 62.5 mU/mL). Test compounds and Lyn enzyme are pre-incubated 60 minutes at room temperature, before adding 5 μL/well of 400 nM Fluorescin labeled substrate peptide (Blk/Lyntide substrate, e.g. #R7188/#R7233, Molecular Devices) in KR-buffer. Final peptide substrate concentration in assay is 100 nM. The kinase assay is started by adding 5 μL/well of 8 μM ATP in KR-buffer (final ATP concentration is 2 μM ATP, Km ATP in Lyn IMAP assay). Following incubation for 2 h at room temperature the enzyme reaction is stopped by adding 40 μL/well IMAP Progressive Binding Solution (according to suppliers (Molecular Devices) protocol using 75% 1× buffer A and 25% 1× buffer B with 1:600 Progressive Binding Solution). After 60 min incubation at room temperature in the dark the FP signal is read. Fluorescence at 535 nm is measured using parallel and perpendicular filters to determine differences in rotation due to binding of the phosphorylated substrate peptide to the beads. Values are calculated as percentage of the difference in readout (ΔmPi) of the controls with and without ATP. EC50 values are determined by curve fitting of the experimental results using Activity Base.

[2] = target: T2, Lck enzyme (Homo sapiens, UniProt P06239); assay: Lck enzyme activity, IMAP fluorescence polarization assay; conditions: 60 min pre-incubation, 6 μM ATP (Km)
T2 construct: purchased Millipore 14-442
Description: Lck enzyme activity is measured using the IMAP (immobilized metal ion affinity-based fluorescence polarization) assay as outlined below.
Lck enzyme (Millipore catalog#14-442), is diluted to 0.4 U/mL in KR buffer (10 mM Tris-HCl, 10 mM MgCl2, 0.01% Tween-20, 0.05% NaN3, 1 mM DTT, 2 mM MnCl2, pH 7.2). Serial dilution log 10 from 2 mM to 63.2 nM of test compounds are made in 100% DMSO. The dilutions in DMSO are then diluted 50-fold in KR-buffer of which 5 μl is used in the assay, leading to a final compound concentration range in the assay from 10 μM to 0.316 nM. 5 μL/well of test compound in KR buffer (final DMSO concentration in the assay is 1%) is mixed with 5 μl/well of 0.4 U/mL Lck enzyme (final concentration in the assay is 0.1 U/mL). Test compounds and Lck enzyme are pre-incubated 60 minutes at room temperature, before adding 5 μL/well of 400 nM Fluorescin labeled substrate peptide (p34cdc2 substrate peptide, e.g. #R7157/#R7172, Molecular Devices) in KR-buffer. Final peptide substrate concentration in assay is 100 nM. The kinase assay is started by adding 5 μL/well of 24 μM ATP in KR-buffer (final ATP concentration is 6 μM ATP, Km ATP in Lck IMAP assay). Following incubation for 2 h at room temperature the enzyme reaction is stopped by adding 40 μL/well IMAP Progressive Binding Solution (according to suppliers (Molecular Devices) protocol using 75% 1× buffer A and 25% 1× buffer B with 1:600 Progressive Binding Solution). After 60 min incubation at room temperature in the dark the FP signal is read. Fluorescence at 535 nm is measured using parallel and perpendicular filters to determine differences in rotation due to binding of the phosphorylated substrate peptide to the beads. Values are calculated as percentage of the difference in readout (ΔmPi) of the controls with and without ATP. EC50 values are determined by curve fitting of the experimental results using Activity Base.

[3] = target: T3, Src enzyme (Homo sapiens, UniProt P12931); assay: Src enzyme activity, IMAP fluorescence polarization assay; conditions: 60 min pre-incubation, 4 μM ATP (Km)
T3 construct: purchased Millipore 14-326
Description: Src enzyme activity is measured using the IMAP (immobilized metal ion affinity-based fluorescence polarization) assay as outlined below.
Src enzyme (Millipore catalog#14-326), is diluted to 0.8 U/mL in KR buffer (10 mM Tris-HCl, 10 mM MgCl2, 0.01% Tween-20, 0.05% NaN3, 1 mM DTT, 2 mM MnCl2, pH 7.2).
Serial dilution log 10 from 2 mM to 63.2 nM of test compounds are made in 100% DMSO. The dilutions in DMSO are then diluted 50-fold in KR-buffer of which 5 μl is used in the assay, leading to a final compound concentration range in the assay from 10 μM to 0.316 nM. 5 μL/well of test compound in KR buffer (final DMSO concentration in the assay is 1%) is mixed with 5 μl/well of 0.8 U/mL Src enzyme (final concentration in the assay is 0.2 U/mL). Test compounds and Src enzyme are pre-incubated 60 minutes at room temperature, before adding 5 μL/well of 400 nM Fluorescin labeled substrate peptide (p34cdc2 substrate peptide, e.g. #R7157/#R7172, Molecular Devices) in KR-buffer. Final peptide substrate concentration in assay is 100 nM. The kinase assay is started by adding 5 μL/well of 16 μM ATP in KR-buffer (final ATP concentration is 4 μM ATP, Km ATP in Src IMAP assay). Following incubation for 2 h at room temperature the enzyme reaction is stopped by adding 40 μL/well IMAP Progressive Binding Solution (according to suppliers (Molecular Devices) protocol using 75% 1× buffer A and 25% 1× buffer B with 1:600 Progressive Binding Solution). After 60 min incubation at room temperature in the dark the FP signal is read. Fluorescence at 535 nm is measured using parallel and perpendicular filters to determine differences in rotation due to binding of the phosphorylated substrate peptide to the beads. Values are calculated as percentage of the difference in readout (ΔmPi) of the controls with and without ATP. EC50 values are determined by curve fitting of the experimental results using Activity Base.

[4] = target: T4, FynT enzyme (Homo sapiens, UniProt P06241); assay: FynT enzyme activity, IMAP fluorescence polarization assay; conditions: 60 min pre-incubation, 0.2 μM ATP (Km)
T4 construct: purchased Biomol SE-287
Description: FynT enzyme activity is measured using the IMAP (immobilized metal ion affinity-based fluorescence polarization) assay as outlined below.
FynT enzyme (Biomol catalog# SE-287), is diluted to 0.5 μg/mL in KR buffer (10 mM Tris-HCl, 10 mM MgCl2, 0.01% Tween-20, 0.05% NaN3, 1 mM DTT, 2 mM MnCl2, pH 7.2). Serial dilution log 10 from 2 mM to 63.2 nM of test compounds are made in 100% DMSO. The dilutions in DMSO are then diluted 50-fold in KR-buffer of which 5 μl is used in the assay, leading to a final compound concentration range in the assay from 10 μM to 0.316 nM. 5 μL/well of test compound in KR buffer (final DMSO concentration in the assay is 1%) is mixed with 5 μl/well of 0.5 μg/mL FynT enzyme (final concentration in the assay is 125 ng/mL). Test compounds and FynT enzyme are pre-incubated 60 minutes at room temperature, before adding 5 μL/well of 400 nM Fluorescin labeled substrate peptide (p34cdc2 substrate peptide, e.g. #R7157/#R7172, Molecular Devices) in KR-buffer. Final peptide substrate concentration in assay is 100 nM. The kinase assay is started by adding 5 μL/well of 0.8 μM ATP in KR-buffer (final ATP concentration is 0.2 μM ATP, Km ATP in FynT IMAP assay). Following incubation for 2 h at room temperature the enzyme reaction is stopped by adding 40 μL/well IMAP Progressive Binding Solution (according to suppliers (Molecular Devices) protocol using 75% 1× buffer A and 25% 1× buffer B with 1:600 Progressive Binding Solution). After 60 min incubation at room temperature in the dark the FP signal is read. Fluorescence at 535 nm is measured using parallel and perpendicular filters to determine differences in rotation due to binding of the phosphorylated substrate peptide to the beads. Values are calculated as percentage of the difference in readout (ΔmPi) of the controls with and without ATP. EC50 values are determined by curve fitting of the experimental results using Activity Base.

Measured: pEC50

T3 sequence (P12931 whole entry): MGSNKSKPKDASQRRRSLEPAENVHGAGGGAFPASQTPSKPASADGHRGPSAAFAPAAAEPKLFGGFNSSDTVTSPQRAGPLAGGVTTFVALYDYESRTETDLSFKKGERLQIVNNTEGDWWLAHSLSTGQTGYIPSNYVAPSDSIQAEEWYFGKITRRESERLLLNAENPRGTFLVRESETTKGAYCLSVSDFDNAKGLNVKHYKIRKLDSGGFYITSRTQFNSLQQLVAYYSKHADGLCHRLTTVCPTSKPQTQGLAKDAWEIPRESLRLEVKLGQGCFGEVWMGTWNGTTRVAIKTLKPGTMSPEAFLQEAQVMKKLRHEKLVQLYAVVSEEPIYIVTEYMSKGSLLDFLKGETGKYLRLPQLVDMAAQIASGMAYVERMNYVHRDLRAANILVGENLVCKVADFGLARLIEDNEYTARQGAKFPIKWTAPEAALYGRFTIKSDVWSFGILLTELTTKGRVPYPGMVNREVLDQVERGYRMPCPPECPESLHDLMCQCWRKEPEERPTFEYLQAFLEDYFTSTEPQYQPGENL
T2 sequence (P06239 whole entry): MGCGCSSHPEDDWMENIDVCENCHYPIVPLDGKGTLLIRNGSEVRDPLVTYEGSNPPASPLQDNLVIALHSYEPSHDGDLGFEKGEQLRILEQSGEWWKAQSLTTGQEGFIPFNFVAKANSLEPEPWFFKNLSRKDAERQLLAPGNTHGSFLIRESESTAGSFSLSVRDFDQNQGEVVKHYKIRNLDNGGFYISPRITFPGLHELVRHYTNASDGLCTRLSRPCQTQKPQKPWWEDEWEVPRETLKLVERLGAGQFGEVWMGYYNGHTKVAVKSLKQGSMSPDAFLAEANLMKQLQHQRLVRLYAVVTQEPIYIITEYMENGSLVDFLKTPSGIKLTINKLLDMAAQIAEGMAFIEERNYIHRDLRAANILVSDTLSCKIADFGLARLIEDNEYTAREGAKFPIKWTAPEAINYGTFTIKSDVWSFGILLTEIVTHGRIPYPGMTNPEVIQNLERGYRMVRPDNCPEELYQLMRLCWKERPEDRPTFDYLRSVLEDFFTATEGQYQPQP
T4 sequence (P06241 1-534 isoform P06241-2): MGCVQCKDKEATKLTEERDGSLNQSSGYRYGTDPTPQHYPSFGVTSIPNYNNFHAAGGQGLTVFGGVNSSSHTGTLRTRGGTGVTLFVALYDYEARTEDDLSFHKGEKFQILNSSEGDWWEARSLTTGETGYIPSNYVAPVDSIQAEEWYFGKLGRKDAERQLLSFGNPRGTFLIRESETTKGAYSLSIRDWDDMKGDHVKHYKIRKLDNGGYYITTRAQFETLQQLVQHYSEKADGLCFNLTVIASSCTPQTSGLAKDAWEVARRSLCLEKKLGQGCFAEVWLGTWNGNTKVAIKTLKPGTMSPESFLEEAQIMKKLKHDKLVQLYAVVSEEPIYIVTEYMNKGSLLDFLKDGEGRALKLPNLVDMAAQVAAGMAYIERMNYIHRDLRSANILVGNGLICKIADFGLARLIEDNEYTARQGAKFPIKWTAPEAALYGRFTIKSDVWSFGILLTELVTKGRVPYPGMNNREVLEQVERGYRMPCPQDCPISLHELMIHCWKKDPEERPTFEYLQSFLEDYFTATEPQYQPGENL
T1 sequence (P07948 whole entry): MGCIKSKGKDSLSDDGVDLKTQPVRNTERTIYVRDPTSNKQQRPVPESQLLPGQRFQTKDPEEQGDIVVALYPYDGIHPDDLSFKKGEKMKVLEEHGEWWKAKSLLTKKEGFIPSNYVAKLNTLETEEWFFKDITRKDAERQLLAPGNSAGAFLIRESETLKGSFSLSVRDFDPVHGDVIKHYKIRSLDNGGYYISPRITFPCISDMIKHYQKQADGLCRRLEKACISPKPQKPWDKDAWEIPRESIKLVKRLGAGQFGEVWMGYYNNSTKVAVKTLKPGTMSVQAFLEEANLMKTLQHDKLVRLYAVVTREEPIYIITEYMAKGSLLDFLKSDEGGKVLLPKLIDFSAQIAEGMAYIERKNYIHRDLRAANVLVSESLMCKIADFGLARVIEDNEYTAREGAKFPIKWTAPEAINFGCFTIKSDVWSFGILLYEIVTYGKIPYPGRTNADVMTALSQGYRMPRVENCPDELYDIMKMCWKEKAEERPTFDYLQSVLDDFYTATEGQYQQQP

C=CC(=O)N1CCC[C@H]1c1nc(-c2ccc(C(=O)Nc3cc(OC)ccn3)cc2)c2c(C)nccn12 [Example 12, (S)-4-(3-(1-acryloylpyrrolidin-2-yl)-8-methylimidazo[1,5-a]pyrazin-1-yl)-N-(4-methoxypyridin-2-yl)benzamide]
≤ 6.00: all assays above

CC#CC(=O)N1CCC[C@H]1c1nc(-c2ccc(C(=O)Nc3cc(CC)ccn3)cc2)c2c(C)nccn12 [Example 20, (S)-4-(3-(1-but-2-ynoylpyrrolidin-2-yl)-8-methylimidazo[1,5-a]pyrazin-1-yl)-N-(4-ethylpyridin-2-yl)benzamide]
≤ 6.00: all assays above

CCCc1ccnc(NC(=O)c2ccc(-c3nc([C@@H]4CCCCN4C(=O)c4ccnc(Cl)n4)n4ccnc(C)c34)cc2)c1 [Example 5, (S)-4-(3-(1-(2-chloropyrimidine-4-carbonyl)piperidin-2-yl)-8-methylimidazo[1,5-a]pyrazin-1-yl)-N-(4-propylpyridin-2-yl)benzamide]
≤ 6.00: all assays above

CCCc1ccnc(NC(=O)c2ccc(-c3nc([C@H](C)N(C)C(=O)/C=C/COC)n4ccnc(C)c34)cc2)c1 [Example 39, (S,E)-4-(3-(1-(4-methoxy-N-methylbut-2-enamido)ethyl)-8-methylimidazo[1,5-a]pyrazin-1-yl)-N-(4-propylpyridin-2-yl)benzamide]
≤ 6.00: all assays above

COC/C=C/C(=O)N1CCCC[C@H]1c1nc(-c2ccc(C(=O)Nc3cc(C(F)(F)F)ccn3)cc2)c2c(C)nccn12 [Example 30, (S,E)-4-(3-(1-(4-methoxybut-2-enoyl)piperidin-2-yl)-8-methylimidazo[1,5-a]pyrazin-1-yl)-N-(4-(trifluoromethyl)pyridin-2-yl)benzamide]
≤ 6.00: all assays above

Cc1nccn2c([C@@H]3CCCCN3C(=O)c3ccnc(Cl)n3)nc(-c3ccc(C(=O)Nc4cc(C(F)(F)F)ccn4)cc3)c12 [Example 17, (S)-4-(3-(1-(2-chloropyrimidine-4-carbonyl)piperidin-2-yl)-8-methylimidazo[1,5-a]pyrazin-1-yl)-N-(4-(trifluoromethyl)pyridin-2-yl)benzamide]
≤ 6.00: all assays above

C=CC(=O)N1CCC[C@H]1c1nc(-c2ccc(C(=O)Nc3cc(C)ccn3)cc2)c2c(C)nccn12 [Example 11, (S)-4-(3-(1-Acryloylpyrrolidin-2-yl)-8-methylimidazo[1,5-a]pyrazin-1-yl)-N-(4-methylpyridin-2-yl)benzamide]
≤ 6.00: all assays above

CC#CC(=O)N1CCC[C@H]1c1nc(-c2ccc(C(=O)Nc3cc(C#N)ccn3)cc2)c2c(C)nccn12 [Example 32, (S)-4-(3-(1-but-2-ynoylpyrrolidin-2-yl)-8-methylimidazo[1,5-a]pyrazin-1-yl)-N-(4-cyanopyridin-2-yl)benzamide]
≤ 6.00: all assays above

CCCc1ccnc(NC(=O)c2ccc(-c3nc([C@@H]4CCCCN4C(=O)/C=C/COC)n4ccnc(C)c34)cc2)c1 [Example 34, (S,E)-4-(3-(1-(4-methoxybut-2-enoyl)piperidin-2-yl)-8-methylimidazo[1,5-a]pyrazin-1-yl)-N-(4-propylpyridin-2-yl)benzamide]
≤ 6.00: all assays above
